Measured values as given in the NIST ThermoML archive (doi:10.1021/je3010535).
“And” between values parts separate entries of the source, which are not always exact repeats. Equal values may be shown once. ± gives the expanded uncertainty stated by the source.

Experiment: Henry's Law constant (molality scale); of the first substance listed, at infinite dilution; xn = mol fraction of the nth substance listed
Conditions: Liquid, Chromatography, x1 = 0

| SMILES | Henry's Law constant (274.15 K) | Henry's Law constant (294.65 K) | Henry's Law constant (296.15 K) | Henry's Law constant (310.15 K) | Henry's Law constant (320.15 K) | Henry's Law constant (331.15 K) | Henry's Law constant (333.15 K) | Henry's Law constant (313.15 K) | Henry's Law constant (326.15 K) | Henry's Law constant (298.15 K) | Henry's Law constant (311.15 K) | Henry's Law constant (332.15 K) | Henry's Law constant (273.25 K) |
| --- | --- | --- | --- | --- | --- | --- | --- | --- | --- | --- | --- | --- | --- |
| Cc1cccc2ccccc12 [1-methylnaphthalene] + O | 3.74 ± 1.1 kPa·kg/mol | 23.4 kPa·kg/mol and 13.3 kPa·kg/mol | 27.8 ± 8.3 kPa·kg/mol | 74 ± 22 kPa·kg/mol | 87.9 ± 26 kPa·kg/mol | 153 ± 46 kPa·kg/mol | 150 ± 45 kPa·kg/mol | – | – | – | – | – | – |
| CC(C)(Cl)Cl [2,2-dichloropropane] + O | 423 ± 170 kPa·kg/mol | – | – | – | – | – | – | 3280 ± 1300 kPa·kg/mol | 36600 ± 15000 kPa·kg/mol | – | – | – | – |
| CCCCOCCO [2-butoxyethan-1-ol] + O | – | – | – | – | – | – | – | – | – | 0.269 ± 0.081 kPa·kg/mol | 0.904 ± 0.27 kPa·kg/mol | 4.27 ± 1.3 kPa·kg/mol | – |
| Cc1ccccc1Cl [2-chlorotoluene] + O | 90.4 ± 36 kPa·kg/mol | 248 kPa·kg/mol and 316 kPa·kg/mol | 356 ± 140 kPa·kg/mol | 503 ± 200 kPa·kg/mol | 533 ± 210 kPa·kg/mol | 1040 ± 420 kPa·kg/mol | – | 890 ± 360 kPa·kg/mol | 1280 ± 510 kPa·kg/mol | – | – | – | – |
| CCCCC(CC)CO (centres undefined) [2-ethyl-1-hexanol] + O | – | – | – | – | – | – | – | – | – | 1.91 ± 0.76 kPa·kg/mol | 4.09 ± 1.6 kPa·kg/mol | 100 ± 40 kPa·kg/mol | 0.0797 ± 0.032 kPa·kg/mol |
| COC(C)(C)C [2-methoxy-2-methylpropane] + O | 5.5 kPa·kg/mol | – | 58 kPa·kg/mol | 59 kPa·kg/mol | 368 kPa·kg/mol | 1650 kPa·kg/mol | – | – | – | – | – | – | – |
| COCCO [2-methoxyethan-1-ol] + O | – | – | – | – | – | – | – | – | – | 0.223 ± 0.067 kPa·kg/mol | 0.665 ± 0.2 kPa·kg/mol | 3.28 ± 0.98 kPa·kg/mol | – |
| Cc1ccc2ccccc2c1 [2-methylnaphthalene] + O | 4.91 ± 1.5 kPa·kg/mol | 31.4 kPa·kg/mol and 16.6 kPa·kg/mol | 35 ± 10 kPa·kg/mol | 84.4 ± 25 kPa·kg/mol | 106 ± 32 kPa·kg/mol | 169 ± 51 kPa·kg/mol | 166 ± 50 kPa·kg/mol | – | – | – | – | – | – |
| CC(C)(C)O [2-methylpropan-2-ol] + O | – | – | – | – | – | – | – | – | – | 1.25 ± 0.37 kPa·kg/mol | 3.19 ± 0.96 kPa·kg/mol | 6.96 ± 2.1 kPa·kg/mol | 0.055 ± 0.017 kPa·kg/mol |
| C#CCO [2-propyn-1-ol] + O | – | – | – | – | – | – | – | – | – | 0.255 ± 0.076 kPa·kg/mol | 0.754 ± 0.23 kPa·kg/mol | 3.71 ± 1.1 kPa·kg/mol | 0.039 ± 0.012 kPa·kg/mol |
| C=CCCl [3-chloro-1-propene] + O | 255 ± 76 kPa·kg/mol | – | – | – | – | – | – | 1350 ± 410 kPa·kg/mol | 3170 ± 950 kPa·kg/mol | – | – | – | – |
| Cc1ccc(Cl)cc1 [4-chlorotoluene] + O | 85.6 kPa·kg/mol | – | 232 kPa·kg/mol | 224 kPa·kg/mol | – | 888 kPa·kg/mol | – | 591 kPa·kg/mol | 1240 kPa·kg/mol | – | – | – | – |
| CC(=O)CC(C)C [4-methylpentan-2-one] + O | 0.834 ± 0.25 kPa·kg/mol | 8.08 kPa·kg/mol and 8.27 kPa·kg/mol | 9.34 ± 2.8 kPa·kg/mol | 37.2 ± 11 kPa·kg/mol | 72.5 ± 22 kPa·kg/mol | 164 ± 49 kPa·kg/mol | 236 ± 71 kPa·kg/mol | – | – | – | – | – | – |
| Cl/C=C/Cl [(E)-1,2-dichloroethene] + O | 311 ± 93 kPa·kg/mol | 956 kPa·kg/mol and 852 kPa·kg/mol | 995 ± 300 kPa·kg/mol | – | – | – | – | 1820 ± 540 kPa·kg/mol | 2900 ± 870 kPa·kg/mol | – | – | – | – |
| Cl/C=C\Cl [(Z)-1,2-dichloroethene] + O | 131 ± 39 kPa·kg/mol | 317 kPa·kg/mol and 330 kPa·kg/mol | 405 ± 120 kPa·kg/mol | – | – | – | – | 636 ± 190 kPa·kg/mol | 1110 ± 330 kPa·kg/mol | – | – | – | – |
| ClCc1ccccc1 [(chloromethyl)benzene] + O | – | – | – | – | – | – | – | – | – | 50.6 ± 15 kPa·kg/mol | 139 ± 42 kPa·kg/mol | – | 7.81 ± 2.3 kPa·kg/mol |
| CC(C)=O [acetone] + O | 0.231 ± 0.092 kPa·kg/mol | 1.44 kPa·kg/mol and 1.26 kPa·kg/mol | 1.13 ± 0.45 kPa·kg/mol | 7.55 ± 3 kPa·kg/mol | 11.5 ± 4.6 kPa·kg/mol | 16 ± 6.4 kPa·kg/mol | 41.1 ± 16 kPa·kg/mol | – | – | – | – | – | – |
